Calls of active or inactive are those of the source. The rule behind the calls is not given here.

A short description of this assay: Inhibition of rate of poly(U,C) (unknown origin)-directed L-[14C]poly-(phenylalanine) formation in Escherichia coli cell-free ribosome system at 10^-3 M by liquid scintillation counting. Format: functional.

On to `COc1ccc(C[C@H](N)C(=O)N[C@@H]2CC[C@H](n3cnc4c(N(C)C)ncnc43)[C@H]2O)cc1`, for which the inhibition result was “inactive”.
Regarding `COc1ccc(C[C@H](N)C(=O)N[C@H]2CCC[C@@H](n3cnc4c(N(C)C)ncnc43)[C@@H]2O)cc1`, the inhibition result is “inactive”.
For the molecule `COc1ccc(C[C@H](N)C(=O)N[C@H]2CC[C@@H](n3cnc4c(N(C)C)ncnc43)[C@@H]2O)cc1`, the inhibition entry is “inactive”.
Turning to `COc1ccc(C[C@H](N)C(=O)N[C@H]2CC[C@H](n3cnc4c(N(C)C)ncnc43)[C@H]2O)cc1`, the inhibition entry was “inactive”.
On to `COc1ccc(C[C@H](N)C(=O)N[C@@H]2CCC[C@H](n3cnc4c(N(C)C)ncnc43)[C@H]2O)cc1`, for which the inhibition entry is “inactive”.

These data come from ChEMBL document CHEMBL3244109, “Synthesis of cyclohexyl carbocyclic puromycin and its inhibition of protein synthesis” (J Med Chem, 1977).
